Article PMC12814168, “Fast, Bright, and Reversible Fluorescent Labeling of Rhodamine-Binding Proteins” (Journal of the American Chemical Society, 2025)
Values joined by “and” are separate entries in the source; they are usually repeats but may differ in a detail not shown here. Identical values can stand only once. Like-named read-outs stand apart in the source and are kept apart here.

Legend:
Rho-tag [1] = target: T1, Rho-tag (Chlorobaculum tepidum, UniProt Q8KFZ1, V17Q/Q25R/S33N/E36V/H40T/K51V/F62Y/M64F/S65D/A66M/G67E/E70D/V87I/G107D/D121K/F125Y/D126E/N138A/S152V); experiment: Fluorescence polarization with 0.5-20 nM dye (0.5 nM TMR in Figure S6 titrations) and serial protein dilutions in 50 mM HEPES, 50 mM NaCl, pH 7.3 with BSA, 25 °C, N at least 3.; assay type: binding; conditions: SD, n = 3; read-out: K D, other Rho-tag forms and JF549
T1 construct: gene CT0179; His10-TEV, recombinant from E. coli
Protocol: (§1) electroporation buffer, aliquoted (12 x 50 µL) on ice, and used immediately for electroporation with 1–5 µg DNA precipitated DNA. Cells were transferred to pre-chilled 0.2 cm gap electroporation cuvettes (Bio-Rad), and electroporated using a Gene Pulser Xcell (0.54 kV, 25 µF, infinite resistance, exponential decay). Cells were recovered in 2 mL YPDS at 30 °C, shaking for 1 h and afterwards expanded in 100 mL SDCAA at 30 °C for 2 days.
(§2) YSD protein expression, staining and sorting
(§3) SGCAA medium was used for induction and cells were grown at 30 °C, 250 rpm for 20 h. […] Samples were filtered through 5 mL round-bottom tubes with cell strainer caps (Falcon) and analyzed directly by FACS. […]
(§4) PMT voltages were set based on negative controls (no protein expression). Gates were applied for FSC, SSC, and fluorescence; signals >10³ (bilirubin or rhodamine dyes) were considered positive, background ≤10². […]
(§5) regions were amplified via KOD PCR reaction using primers containing unique barcodes (NGS adaptor ligation oligos, Eurofins Genomics) analyzed by NGS sequencing (Illumina technology, Eurofins Genomics). The NGS results were analyzed using a custom-build pipeline as described previously. Alternatively, plasmid DNA was transformation into E.cloni 10G and single colonies were analyzed by Sanger sequencing (Eurofins). […]
(§6) Stopped-flow kinetic fluorescence anisotropy […]
(§7) FA: fluorescence anisotropy, B: max. […]

[2] = Spectral properties: absolute quantum yield, extinction coefficient, brightness; assay type: physicochemical
Protocol: Serially fluorophore dilutions (0 – 3 μM) were prepared in activity buffer in presence or absence […]
Measurements were performed in 200 μL volumes in clear-bottom non-binding […]
recorded on the Spark20M microplate reader (Tecan). Following baseline correction, the absorbance was plotted against the dye concentration and the data were fitted linearly. Path […]
coefficients were calculated via the Lambert-Beer law (Equation 1).
Absolute quantum yields were determined at room temperature using a Hamamatsu Quantaurus-QY spectrometer (C11347 model). Rhodamine dyes (1 μM) were tested with and without excess […]
Samples were prepared in 800 μL glass vials
Quantum yield represent as mean ± standard deviation from three technical replicates. The brightness was thereafter calculated using Equation 5. […]

SiR-tag = target: T2, SiR-tag; experiment: Fluorescence intensity titration of dye (not given; JF646 by comparison with the text) with serial protein dilutions, 50 mM HEPES, 50 mM NaCl, pH 7.3 with BSA, 25 °C, n at least 3.; assay type: binding; conditions: SD, n = 3; read-out: KD [M] (Supplementary Table 10, replicates)
T2 construct: 2 + PROSS8 background combined with P57M/F58Y/R60L and G63N/F64K/D65N/M66H; His10-TEV
Description: (§8) Supplementary Table 10 | Characterization of putative SiR-tag variants. variant sequence KD [M] TM [° C]
(§9) Binding affinity determined via fluorescence intensity. *data from single replicate. If not stated otherwise, average data and standard deviation from n ≥ 3 individual replicates. Thermostability (T M) determined via […]
(§10) Supplementary Table 11 | Plasmids deposited on Addgene
(§11) Addgene ID plasmid insert expression organism
(§12) 249667 pcDNA5/FRT/TO H2B-Rho-tag-T2A-mEGFP mammalian cells
(§13) 249668 pcDNA5/FRT/TO H2B-SiR-tag-T2A-mEGFP mammalian cells
(§14) 249669 pcDNA5/FRT/TO CD86-Rho-tag mammalian cells
(§15) 249670 pcDNA5/FRT/TO CD86-SiR-tag mammalian cells
(§16) 249671 pTol2-HuC Rho-tag-Pro30-mEGFP-NLS3x zebrafish […]
as §3, §4
(§17) regions were amplified via KOD PCR reaction using primers containing unique barcodes (NGS adaptor ligation oligos, Eurofins Genomics) analyzed by NGS sequencing (Illumina technology, Eurofins Genomics). The NGS results were analyzed using a custom-build pipeline as described previously. […]

variant 2 = target: T3, variant 2; experiment: as above; assay type: binding; conditions: SD, n = 3; read-out: KD [M] (Supplementary Table 10, replicates)
T3 construct: Rho-tag background, loop2 library hit
Description: as §8, §9, §10, §11, §12, §13, §14, §15, §16, §3, §4, §17

BABP = target: T4, BABP (Gallus gallus, UniProt P80226); experiment: Fluorescence polarization at constant 20 nM TMR with serial protein dilutions (0-200 uM) in 50 mM HEPES, 50 mM NaCl, pH 7.3 with BSA, 25 °C, N at least 3.; assay type: binding; conditions: SD, n = 3
T4 construct: gene FABP1; recombinant from E. coli, N-terminal His10-TEV (pET51b), 15 kDa
T4 sequence (P80226 2-126): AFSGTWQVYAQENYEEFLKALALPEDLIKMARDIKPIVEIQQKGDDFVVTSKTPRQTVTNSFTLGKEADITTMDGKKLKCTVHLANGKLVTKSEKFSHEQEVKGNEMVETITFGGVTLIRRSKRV
Description: (§18) 1 Dye and candidate selection for the development of Rho-tags. A) Chemical structure of TMR and SiR and their corresponding HaloTag Ligand (HTL) derivatives. […] B) BOILED-Egg representation generated with SwissADME for molecules shown in (A). Correlation between the topological polar surface area (TPSA) and predicted water partitioning coefficient (WlogP). Gray area–predicted low passive absorption to the gastrointestinal (GI) system and limited brain access (BBB). Egg white–high probability for GI absorption. Egg yolk–high probability for BBB permeation. Blue dot–substrate is predicted to be actively exported from the central nervous system. […]
as §3, §4, §17

SAV2435 = target: T5, SAV2435 (Staphylococcus aureus, UniProt A0A0H3K0Y5); experiment: as above; assay type: binding; conditions: SD, n = 3
T5 construct: recombinant from E. coli, N-terminal His10-TEV (pET51b), 20 kDa
Description: as §18, §3, §4, §17

cpRho-tag = experiment: Fluorescence polarization with 0.5-20 nM dye (0.5 nM TMR in Figure S6 titrations) and serial protein dilutions in 50 mM HEPES, 50 mM NaCl, pH 7.3 with BSA, 25 °C, N at least 3.; assay type: binding; conditions: SD, n = 3; read-out: K D, other Rho-tag forms and JF549
Protocol: as §1, §2, §3, §4, §5, §6, §7

Rho-tag [3] = target: T6, Rho-tag (Chlorobaculum tepidum, UniProt Q8KFZ1, A66M/D121K/D126E/E36V/E70D/F125Y/F62Y/G107D/G67E/H40T/K51V/M64F/N138A/Q25R/S152V/S33N/S65D/V17Q/V87I); experiment: Fluorescence polarization at constant 20 nM TMR-linked ligand with serial Rho-tag dilutions (0-200 uM), pH 7.3, 25 °C, three independent measurements.; assay type: binding; conditions: SD, n = 3
T6 construct: gene CT0179; His10-TEV, recombinant from E. coli
Protocol: (§19) Binding affinities KD was derived from fluorescence polarization experiments at constant dye concentration
(§20) (20 nM) and serial protein dilutions (0 – 200 µM). Average data and standard deviation from three
independent measurements (N = 3).
(§21) Biochemical and Spectral Characterization
(§22) Serial protein dilutions (0 – 200 μM) were prepared in activity buffer and transferred to black flat bottom low-volume 384-well plates (Greiner). Rhodamine dyes (0.5 – 20 nM) were added in activity buffer containing 1% (w/v) bovine serum albumin (BSA, Fraction V, Roth) using a 384-channel VIAFLO pipettor (Integra) at a 1:1 mixing ratio.
(§23) JF 646) or fluorescence polarization (FP, all other dyes) measurements were conducted on a Spark20M microplate reader (Tecan) at 25 °C in technical triplicates. Excitation and emission settings are summarized in Method Table 5.
(§24) For data processing, technical triplicates were averaged and normalized between 0 ( i.e. free dye)
(§25) and 1 (fully bound dye). The dissociation constants KD were determined by fitting a single-site
binding model (Equation 2) to the data.
(§26) at least three independent experiments (N ≥ 3), unless otherwise mentioned.
(§27) between dyes or proteins, log 10 fold changes relative to a reference e.g., parental protein were
(§28) Y: fluorescence intensity [a.u.] or fluorescence polarization [mFP], A: min. FI / FP, B: max.
(§29) protein concentration [mol/L], h: Hill coefficient, K D: dissociation constant [mol/L].

Rho-tag [4] = target: T1, Rho-tag; experiment: as above; assay type: binding; conditions: SD, n = 3; read-out: KD [µM] (Supplementary Table 4)
Protocol: as §19, §20
independent measurements (N = 3).
as §21, §22, §23, §24, §25
binding model (Equation 2) to the data.
as §26, §27, §28, §29

[5] = with 20 µM Rho-tag (TMR, JF549) or SiR-tag (SiR, JF646)

T1 sequence (Q8KFZ1 entry or part of it with the stated changes): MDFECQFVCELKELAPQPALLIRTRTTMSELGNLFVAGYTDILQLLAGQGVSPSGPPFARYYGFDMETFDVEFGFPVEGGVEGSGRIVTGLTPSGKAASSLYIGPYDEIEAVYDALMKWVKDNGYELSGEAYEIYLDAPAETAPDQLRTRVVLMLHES
T5 sequence (A0A0H3K0Y5 entry or part of it): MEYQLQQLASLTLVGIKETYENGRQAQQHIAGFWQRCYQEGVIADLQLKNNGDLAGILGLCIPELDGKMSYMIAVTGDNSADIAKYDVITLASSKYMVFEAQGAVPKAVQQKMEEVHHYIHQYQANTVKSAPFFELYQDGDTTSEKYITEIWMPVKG
T6 sequence (Q8KFZ1 entry or part of it with the stated changes): as the sequence (Q8KFZ1 entry or part of it with the stated changes) above

## O=C1OC2(c3ccc(N4CCC4)cc3Oc3cc(N4CCC4)ccc32)c2ccccc21 [JF549, Janelia Fluor 549 (TMR derivative)]
Rho-tag [1]
  Kd: 4 nM

## O=C1OC2(c3ccc(N4CCC4)cc3Oc3cc(N4CCC4)ccc32)c2ccccc21 [JF549]
[2]
  Absolute quantum yield Φ: 0.844 ± 0.008
  Brightness ε × Φ: 128 ± 3
  Extinction coefficient ε: 152 ± 22
[2]; buffer
  Extinction coefficient ε: 101 ± 08 M-1cm-1 × 103
[2]; buffer (unbound dye)
  Absolute quantum yield Φ: 0.842 ± 0.012
[2]; [5]
  Absolute quantum yield Φ: 0.87 ± 0.02 and 0.871 ± 0.018
  Brightness ε × Φ: 105 ± 4 M-1cm-1 × 103
  Extinction coefficient ε: 121 ± 22 M-1cm-1 × 103

## C[Si]1(C)c2cc(N3CCC3)ccc2C2(OC(=O)c3ccccc32)c2ccc(N3CCC3)cc21 [JF646, Janelia Fluor 646 (SiR derivative)]
SiR-tag
  Kd: 2e-08 M
Variant 2
  Kd: 9.1e-08 M

## C[Si]1(C)c2cc(N3CCC3)ccc2C2(OC(=O)c3ccccc32)c2ccc(N3CCC3)cc21 [JF646]
[2]
  Absolute quantum yield Φ: 0.554 ± 0.011
  Extinction coefficient ε: 162 ± 12
[2]; buffer
  Brightness ε × Φ: 051 ± 1 M-1cm-1 × 103
  Extinction coefficient ε: 106 ± 24 M-1cm-1 × 103
[2]; buffer (unbound dye)
  Absolute quantum yield Φ: 0.477 ± 0.024
[2]; [5]
  Absolute quantum yield Φ: 0.660 ± 0.018
  Extinction coefficient ε: 152 ± 17 M-1cm-1 × 103

## CN(C)c1ccc2c(-c3ccccc3C(=O)[O-])c3ccc(N(C)C)cc3[o+]c2c1 [TMR, tetramethylrhodamine]
[2]; HaloTag7-bound
  Absolute quantum yield Φ: 0.542 ± 0.013
  Brightness ε × Φ: 55 ± 3 M-1cm-1 × 103
  Extinction coefficient ε: 101 ± 08 M-1cm-1 × 103
[2]; buffer
  Brightness ε × Φ: 39 ± 2 M-1cm-1 × 103
  Extinction coefficient ε: 089 ± 11 M-1cm-1 × 103
[2]; buffer (unbound dye)
  Absolute quantum yield Φ: 0.44 ± 0.01 and 0.439 ± 0.011
[2]; [5]
  Absolute quantum yield Φ: 0.73 ± 0.02 and 0.728 ± 0.019
  Brightness ε × Φ: 75 ± 1 M-1cm-1 × 103
  Extinction coefficient ε: 103 ± 21 M-1cm-1 × 103
BABP
  Kd: 34000 nM
SAV2435
  Kd: 17000 nM
cpRho-tag
  Kd: 6.8 nM

## CN(C)c1ccc2c(-c3cc(C(=O)NCCOCCOCCCCCCCl)ccc3C(=O)[O-])c3ccc(=[N+](C)C)cc-3oc2c1 [TMR-HTL, tetramethylrhodamine-6-carboxyl HaloTag Ligand]
Rho-tag [3]
  Kd: 9800 nM

## CN(C)c1ccc2c(-c3cc(C(=O)NCCOCCOCCCCCNS(C)(=O)=O)ccc3C(=O)[O-])c3ccc(=[N+](C)C)cc-3oc2c1 [TMR-S5 (xHTL), tetramethylrhodamine-6-carboxyl exchangeable HaloTag Ligand S5]
Rho-tag [4]
  Kd: 18.8 µM

## tetramethylrhodamine-6-carboxyl SNAP-tag ligand BG (benzylguanine) [TMR-BG]
Rho-tag [4]
  Kd: 0.4 µM

## tetramethylrhodamine-6-carboxyl SNAP-tag ligand CP (chloropyrimidine) [TMR-CP]
Rho-tag [4]
  Kd: 1.9 µM
